Data reported in patent publication US5763443A, “MDR resistance treatment and novel pharmaceutically active riminophenazines” (priority 1994, dated 1998).
In brackets after ≈: the same amount, converted by molar mass. Like-named read-outs stand apart in the source and are kept apart here.

Assays:
[1] = system: MDR leukaemia cell line K562/MMB; test: cells; conditions: for MDR activity / sensitivity against cell line K562/MMP: compared with known reference compound B4100
Protocol: A third cell line (562/MMB) used was a MDR leukemia cell line selected in vitro by progressive exposure to increasing concentrations of vinblastine in order to increase P-glycoprotein expression. This cell line was developed in the Department of Immunology, University of Pretoria from K562 (ATCC CCL 243) supplied by Highveld Biological (Pty) Ltd, Sandton.
(§1) The general procedure set forth above was followed, i.e. 7 days incubation in the4 presence of doxorubicin at 12,5 ng/ml or vinblastine at 25 or 3 ng/ml.
(§2) The effects were examined over a seven (7) day exposure to different concentrations of B4119 and B4125 on the sensitivity of a doxorubicin resistant leukaemia cell line (K562/MMB) and a lung carcinoma cell line (H69/LX4) to doxorubicin (dox) and vinblastine (VB) using the MTT assay.

[2] = system: H69/LX4 cells; test: [14C]-vinblastine accumulation in MDR cell line; assay type: cell-based, human; conditions: 1 hour pretreatment, 30 minutes [14C]-vinblastine
Protocol: The effect of riminophenazines on the accumulation of [^14 C]-vinblastine was investigated. For these experiments, both of the above cell lines (H69/LX4 and H69/P) were prepared as described by Coley et al (Biochem. Pharmacal 38, 4467-4475 (1989)). After a 1 hour pretreatment with the MDR reversal agents, cells (1×10^6 /ml) were exposed to […] [^14 C]-vinblastine (1 μCi specific activity) for 30 minutes.

[3] = system: human small cell lung cancer cell line H69/P; test: MTT assay, 7 day exposure, sensitivity of parent cell line H69/P to chemotherapeutic agents; assay type: cell-based
Protocol: (§3) The riminophenazines of the above formula (I), contain an imino group. […] The potency of compounds of the above general formula, as inhibitors of multi-drug resistance, was assessed by sensitization of a P-glycoprotein positive cell line to drugs associated with this form of resistance. A human small cell lung cancer cell line H 69/P as well as a multi-drug resistance (MDR) sub-line H69/LX4 were used. These cell lines were obtained from the Medical Research Council Clinical Oncology and Radiotherapeutics Unit, Hills Road, Cambridge, England. The H69/LX4 line was selected in vitro by progressive exposure to increasing concentrations of doxorubicin in order to increase P-glycoprotein expression.
(§4) The cell lines used were human small cell lung cancer cell line HP69/P and a multi-drug resistant (MDR) sub-line H69/LX4, both of which were supplied by the MRC Clinical Oncology and Radiotherapeutics Unit, Hills Road, Cambridge, England. The maintenance of the cell lines and drug response assays was done as described by Twentyman et al in British Journal of Cancer Volume 65 pages 335-340. The H69/LX4 line was originally described by Twentyman et al in British Journal of Cancer Volume 53, pages 529-637 (1986).
(§5) The data in parenthesis represents fold sensitivity compared with the chemotherapeutic agent without the MDR inhibitor.

[4] = system: multi-drug resistant (MDR) lung carcinoma cell line H69/LX4; test: in vitro; conditions: for INCREASED SENSITIVITY H69/Lx4: Table VIII, values equal IC50 NONE / IC50 with VB 25 ng/ml of Table VII, 10080 min; for MDR reversal properties: with doxorubicin 12,5 ng/ml or vinblastine 25 ng/ml, FIGS. 4 to 7
Protocol: as §3, §4, §5
The results obtained, are illustrated graphically in FIGS. 4 to 7 of the accompanying drawings.
as §1, §2

[5] = bio-availability (no method given)
[6] = system: gram positive microorganisms (Mycobacterium, Enterococcus, Streptococcus, methicillin resistant Staphylococcus); test: anti-bacterial activity
[7] = Homo sapiens, K562, read-out: IC 50 K562/MMB VB 3 ng/ml, Table VII, with vinblastine 3 ng/ml
[8] = Table VIII, values equal IC50 NONE / IC50 with VB 3 ng/ml of Table VII, 10080 min
[9] = H69/P, CsA 5 μg/ml, clofazimine 1 μg/ml or B669 0.5 μg/ml
[10] = H69/LX4, CsA 5 μg/ml, clofazimine 1 μg/ml or B669 0.5 μg/ml
[11] = Homo sapiens, 168 h, read-out: IC 50 H69/Lx4 NONE
[12] = Homo sapiens, read-out: IC 50 H69/Lx4 DOX 12 ng/ml
[13] = Homo sapiens, read-out: IC 50 H69/Lx4 VB 25 ng/ml
[14] = Homo sapiens, K562, 168 h, read-out: IC 50 K562/MMB NONE
[15] = Homo sapiens, K562, read-out: IC50 K562/MMB +VB (3 ng/ml), Table VI, with vinblastine 3 ng/ml
[16] = Homo sapiens, K562, read-out: IC50 K562/MMB +dox (12 ng/ml), Table VI, with doxorubicin 12 ng/ml
[17] = Homo sapiens, K562, read-out: IC 50 K562/MMB DOX 12 ng/ml, Table VII, with doxorubicin 12 ng/ml
[18] = Homo sapiens, K562, read-out: IC50 K562/MMB none
[19] = Homo sapiens, read-out: IC50 H69/LX4 +VB (25 ng/ml)
[20] = Homo sapiens, read-out: IC50 H69/LX4 +dox (12 ng/ml)
[21] = Homo sapiens, read-out: IC50 H69/LX4 none
[22] = Homo sapiens, K562, 168 h, read-out: cytotoxic activity of chemotherapeutic agent at the concentration used with the riminophenazine
[23] = Homo sapiens, 168 h, read-out: cytotoxic activity of chemotherapeutic agent at the concentration used with the riminophenazine

SMILES | IC50 [1, 7] [µg/mL] | MDR activity / sensitivity against cell line K562/MMP [1] | IC50 [4, 11] [µg/mL] | IC50 [4, 12] [µg/mL] | IC50 [4, 13] [µg/mL] | INCREASED SENSITIVITY H69/Lx4 [4] | INCREASED SENSITIVITY K 562/MMB [1, 8] | IC50 [1, 17] [µg/mL] | anti-bacterial activity [6] | other results
CC(C)N=c1cc2n(-c3ccc(Cl)cc3)c3ccccc3nc-2cc1Nc1ccc(Cl)cc1 [Compound B663, N,5-bis-(4-chlorophenyl)-3,5-dihydro-3-[(1-methylethyl)imino]-2-phenazinamine, reference compound] | 0.038 (≈ 0.0803 µM) | good activity | 2.5 (≈ 5.28 µM) | 1.31 (≈ 2.78 µM) | 0.372 (≈ 0.786 µM) | 6.72 | – | – | – | INCREASED S[…] 562/MMB [1, 8]: 5.92; vinblastine accumulation in the MDR cell line [2]: significant enhancement; fold sensitivity to Etoposide compared with agent without MDR inhibitor ([3]; 168 h, 1 ug/mL): 0.6 fold; fold sensitivity to Cyclophosphamide compared with agent without MDR inhibitor [3, 9]: 0.9 fold; fold sensitivity to Daunorubicin compared with agent without MDR inhibitor [3, 9]: 1.0 fold; fold sensitivity to Doxorubicin compared with agent without MDR inhibitor [3, 9]: 0.8 fold; fold sensitivity to Methotrexate compared with agent without MDR inhibitor [3, 9]: 0.9 fold; fold sensitivity to Mitomycin C compared with agent without MDR inhibitor [3, 9]: 0.7 fold; fold sensitivity to Vinblastine compared with agent without MDR inhibitor [3, 9]: 1.3 fold; fold sensitivity to Etoposide compared with agent without MDR inhibitor ([4]; 168 h, 1 ug/mL): 5.0 fold; fold sensitivity to Cyclophosphamide compared with agent without MDR inhibitor [4, 10]: 1.0 fold; fold sensitivity to Daunorubicin compared with agent without MDR inhibitor [4, 10]: 4 fold; fold sensitivity to Doxorubicin compared with agent without MDR inhibitor [4, 10]: 11 fold; fold sensitivity to Methotrexate compared with agent without MDR inhibitor [4, 10]: 0.7 fold; fold sensitivity to Mitomycin C compared with agent without MDR inhibitor [4, 10]: 1.7 fold; fold sensitivity to Vinblastine compared with agent without MDR inhibitor [4, 10]: ~13 fold; fold sensitivity to Vinblastine compared with agent without MDR inhibitor ([4]; H69/LX4, CsA 5 μg/ml, clofazimine 1 μg/ml or B669 0.5 μg/ml, listed as Clofazimine (B663)): 13.7 fold
CC1(C)CC(N=c2cc3n(-c4ccc(C(F)(F)F)cc4)c4ccccc4nc-3cc2Nc2ccc(C(F)(F)F)cc2)CC(C)(C)N1 [Compound B4103, N,5-bis(4-trifluoromethylphenyl)-3,5-dihydro-3[(2',2',6',6'-tetramethyl-4-piperidyl)imino]-2-phenazinamine] | – | – | 0.755 (≈ 1.18 µM) | 0.552 (≈ 0.866 µM) | 0.145 (≈ 0.227 µM) | 5.21 | 0.69 | – | – | bio-availability [5]: good bio-availability; MDR reversal properties ([4]; H69/LX4): Very good MDR reversal properties
CC1(C)CC(N=c2cc3n(-c4ccc(F)c(Cl)c4)c4ccccc4nc-3cc2Nc2ccc(F)c(Cl)c2)CC(C)(C)N1 [Compound B4119, N,5-bis(3-chloro-4-fluorophenyl)-3,5-dihydro-3-[(2',2',6',6'-tetramethyl-4-piperidyl)-imino]-2-phenazinamine] | 0.189 (≈ 0.312 µM) | – | 0.62 (≈ 1.02 µM) | 0.6 (≈ 0.989 µM) | 0.109 (≈ 0.18 µM) | 5.69 | 1.46 | 0.147 (≈ 0.242 µM) | Particularly active | IC50 [1, 14]: 0.276 µg/mL (≈ 0.455 µM); IC50 [1, 15]: 0.189 µg/mL (≈ 0.312 µM); IC50 [1, 16]: 0.147 µg/mL (≈ 0.242 µM); IC50 [1, 18]: 0.276 µg/mL (≈ 0.455 µM); IC50 [4, 19]: 0.109 µg/mL (≈ 0.18 µM); IC50 [4, 20]: 0.6 µg/mL (≈ 0.989 µM); IC50 [4, 21]: 0.62 µg/mL (≈ 1.02 µM)
CC1(C)CC(N=c2cc3n(-c4cc(Cl)cc(Cl)c4)c4ccccc4nc-3cc2Nc2cc(Cl)cc(Cl)c2)CC(C)(C)N1 [Compound B4121, N,5-bis(3,5-dichiorophenyl)-3,5-dihydro-3-[(2',2',6',6'-tetramethyl-4-pipendyl)-imino]-2-phenazinamine] | 0.023 (≈ 0.036 µM) | increased substantially and unexpectedly | 1.23 (≈ 1.92 µM) | 0.524 (≈ 0.819 µM) | 0.162 (≈ 0.253 µM) | 7.57 | 97.83 | – | Particularly active | –
CC1(C)CC(N=c2cc3n(-c4ccccc4Cl)c4ccccc4nc-3cc2Nc2ccccc2Cl)CC(C)(C)N1 [Compound B4125, N,5-bis(2-chlorophenyl)-3,5-dihydro-3-[(2',2',6',6'-tetramethyl-4-piperidyl)-imino]-2-phenazinamine] | 0.026 (≈ 0.0456 µM) | exceptionally good activity | 0.785 (≈ 1.38 µM) | 0.521 (≈ 0.913 µM) | 0.399 (≈ 0.699 µM) | 1.97 | 11.96 | 0.188 (≈ 0.329 µM) | Particularly active | IC50 [1, 14]: 0.311 µg/mL (≈ 0.545 µM); IC50 [1, 15]: 0.026 µg/mL (≈ 0.0456 µM); IC50 [1, 16]: 0.188 µg/mL (≈ 0.329 µM); IC50 [1, 18]: 0.311 µg/mL (≈ 0.545 µM); IC50 [4, 19]: 0.399 µg/mL (≈ 0.699 µM); IC50 [4, 20]: 0.521 µg/mL (≈ 0.913 µM); IC50 [4, 21]: 0.785 µg/mL (≈ 1.38 µM)
CC1(C)CC(N=c2cc3n(-c4cccc(C(F)(F)F)c4)c4ccccc4nc-3cc2Nc2cccc(C(F)(F)F)c2)CC(C)(C)N1 [Compound B4126, N,5-bis(3-trifluoromethyl-phenyl)-3,5-dihydro-3-[(2',2',6',6'-tetramethyl-4-piperidyl)-imino]-2-phenazinamine] | – | – | 0.699 (≈ 1.1 µM) | 0.455 (≈ 0.714 µM) | 0.26 (≈ 0.408 µM) | 2.69 | 4.45 | – | Particularly active | –
CC(C)c1ccc(Nc2cc3nc4ccccc4n(-c4ccc(C(C)C)cc4)c-3cc2=NC2CC(C)(C)NC(C)(C)C2)cc1 [Compound B4158, N,5-bis(4-isopropylphenyl)-3,5-dihydro-3-[(2',2',6',6'-tetramethyl-4-piperidyl)-imino]-2-phenazinamine] | – | – | 0.408 (≈ 0.696 µM) | 0.343 (≈ 0.585 µM) | 0.124 (≈ 0.212 µM) | 3.29 | 4.69 | – | – | bio-availability [5]: good bio-availability; MDR activity against the cell line H69/LX4 [4]: Reasonably good activity; MDR reversal properties ([4]; H69/LX4): Very good MDR reversal properties
CC1(C)CC(N=c2cc3n(-c4ccc(C(F)(F)F)cc4C(F)(F)F)c4ccccc4nc-3cc2Nc2ccc(C(F)(F)F)cc2C(F)(F)F)CC(C)(C)N1 [Compound B4178, N,5-bis(2,4-di-trifluoromethyl-phenyl)-3,5-dihydro-3-[(2',2',6',6'-tetramethylpiperidyl)-imino]phenazinamine] | 0.199 (≈ 0.257 µM) | – | 0.785 (≈ 1.01 µM) | 0.521 (≈ 0.673 µM) | 0.399 (≈ 0.516 µM) | 1.97 | 6.03 | 0.919 (≈ 1.19 µM) | – | IC50 ([1]; Homo sapiens, K562, 168 h, read-out: IC 50 K562/MMB NONE, Table VII, riminophenazine alone, 7 day): 1.02 µg/mL (≈ 1.32 µM)
COc1cccc2c1C(=O)c1c(O)c3c(c(O)c1C2=O)C[C@@](O)(C(=O)CO)C[C@@H]3O[C@H]1C[C@H](N)[C@H](O)[C@H](C)O1 [Doxorubicin, reference compound] | – | – | – | – | – | – | – | – | – | cytotoxicity at 0.0125 µg/mL [1, 22]: < 10%; cytotoxicity at 0.0125 µg/mL [4, 23]: < 10%
CC[C@]1(O)C[C@@H]2CN(CCc3c([nH]c4ccccc34)[C@@](C(=O)OC)(c3cc4c(cc3OC)N(C)[C@H]3[C@@](O)(C(=O)OC)[C@H](OC(C)=O)[C@]5(CC)C=CCN6CC[C@]43[C@@H]65)C2)C1 [Vinblastine, reference compound] | – | – | – | – | – | – | – | – | – | cytotoxicity at 0.003 µg/mL [1, 22]: < 10%; cytotoxicity at 0.025 µg/mL [4, 23]: < 10%
